Reference: PubChem BioAssay AID1963982 (Molecular Pharmacology Branch, DTP, NCI, 2024)

System: 313798-341-R-J2-PDC spheroids, viability
Experiment: Anticancer human tumor 313798-341-R-J2-PDC patient-derived cervical squamous cell carcinoma cell line growth inhibition [PI3K]
Settings: spheroids with HUVEC and MSC; for IC50: curve of first compound; for viability, T/C: stronger effect = lower value
Description: Combinatorial screen of targeted agents with the PI3K inhibitors inavolisib, alpelisib, duvelisib, and copanlisib in multi-cell type tumor spheroids
A high-throughput screen of multi-cell type tumor spheroids was designed to identify active combinations of targeted small molecules and PI3K pathway inhibitors. Complex spheroids include a stromal component modeled by human endothelial cells (HUVEC) and fibroblasts modeled by human mesenchymal stem cells (MSCs). The concentration ranges selected for each drug and investigational agent were based upon clinically achievable concentrations if the clinical Cmax of the agent was known.
Compounds. The drugs and investigational agents: inavolisib (NSC800729), alpelisib (NSC765974), duvelisib (NSC772469), copanlisib (NSC816437), ipatasertib (NSC767898), afuresertib (NSC778305), talazoparib (NSC767125), sapanisertib (NSC764658), selumetinib (NSC741078), tovorafenib (DAY101, NSC766906), vemurafenib (NSC761431), ravoxertinib (NSC781343), sotorasib (NSC818433), MRTX1133 (NSC 836407), abemaciclib (NSC 768073), palbociclib (NSC758247), venetoclax (NSC 766270), SY5609 (NSC837396), enzalutamide (NSC755605), and darolutamide (NSC825331), were obtained from the National Cancer Institute (NCI) Developmental Therapeutics Program Chemical Repository. The FDA-approved anticancer drug set is available from the NCI Developmental Therapeutics Program. […] The stock solutions were prepared in dimethyl sulfoxide (DMSO, Sigma-Aldrich, St. Louis, MO, cat. D2650) at 800-fold the tested concentration and stored at -70 degrees C prior to their use. All drugs and investigational agents were tested over a range starting from a high concentration at or near the clinical Cmax and decreasing in half-log increments. If the clinical Cmax for an agent had not been determined, the highest concentration tested was 10 microM.
Cell Culture. All cells were maintained in an incubator at 37 degrees C and 5% CO2 with 95% humidity. The PDC lines were cultured according to standard operating procedures established by the NCI PDMR (https://pdmr.cancer.gov/sops/default.htm). All PDCs were thawed and cultured in Matrigel-coated flasks prepared with a working solution of 1X Ham's F-12 nutrient mix, without supplementation (Invitrogen, Waltham, MA, cat. 11765054), 100 U/mL penicillin-streptomycin (Invitrogen, cat. 15140122), and 2.5% Matrigel (Corning Inc., Corning, NY, cat. 354248) for the first three passages. The 354836-022-R-J1-PDC, 475296-252-R-J1-PDC, and 997726-040-R-J2-PDC lines were cultured in 6A media, which includes advanced DMEM/F-12 (Thermo Fisher Scientific, cat. 12634028), 10 mM HEPES (Thermo Fisher Scientific, cat. 15630080), 1X GlutaMAX supplement (Thermo Fisher Scientific, cat. 35050061), 0.1 mg/mL primocin (InvivoGen, San Diego, CA, cat. ant-pm-2), 10% defined fetal bovine serum, heat inactivated (HyClone Laboratories Inc., Logan, UT, cat. SH30070.03HI), 50% L-WRN conditioned media (ATCC, cat. CRL-3276), 1.25 mM N-Acetyl-L-cysteine (Sigma-Aldrich, cat. A9165), 10 mM nicotinamide (Sigma-Aldrich, cat. N0636), 1X B-27 supplement (Thermo Fisher Scientific, cat. 17504044), 1X N-2 supplement (Thermo Fisher Scientific, cat. 17502048), and 10 microM Y-27632 dihydrochloride (Tocris Bioscience, Bristol, United Kingdom, cat. 1254). The 624824-186-R-J2-PDC line was cultured in 6C/Colon 1B media, which includes all 6A media components plus 50 ng/mL human EGF recombinant protein (Thermo Fisher Scientific, cat. PHG0311). […]

[1] = second compound 0.00316 µM, first compound 0.0316 µM
[2] = second compound 0.00316 µM, first compound 0.1 µM
[3] = second compound 0.01 µM, first compound 0.0316 µM
[4] = second compound 0.01 µM, first compound 0.1 µM
[5] = second compound 0.0316 µM, first compound 0.0316 µM
[6] = second compound 0.0316 µM, first compound 0.1 µM
[7] = second compound 0.1 µM, first compound 0.0316 µM
[8] = second compound 0.1 µM, first compound 0.1 µM
[9] = second compound 0.316 µM, first compound 0.0316 µM
[10] = second compound 0.316 µM, first compound 0.1 µM
[11] = second compound 1 µM, first compound 0.0316 µM
[12] = second compound 1 µM, first compound 0.1 µM
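Note: spheroids exposed to compounds for seven days.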
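Throughout, for viability, T/C: 100% = DMSO vehicle control viability.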

In the case of `CC(=O)c1c(C)c2cnc(Nc3ccc(N4CCNCC4)cn3)nc2n(C2CCCC2)c1=O` + CC(Nc1ccc2c(c1)OCCn1cc(N3C(=O)OCC3C(F)F)nc1-2)C(N)=O, the IC50 (second compound 0.00316 µM) is reported as over 0.1 µM, the IC50 (second compound 0.01 µM) is reported as over 0.1 µM and the IC50 (second compound 0.0316 µM) is reported as over 0.1 µM. It also gave an IC50 (second compound 0.1 µM) of over 0.1 µM, an IC50 (second compound 0.316 µM) of over 0.1 µM and an IC50 (second compound 1 µM) of over 0.1 µM. It also gave a viability, T/C (second compound 0.00316 µM, first compound 0.000316 µM) of 98.7%, a viability, T/C (second compound 0.00316 µM, first compound 0.001 µM) of 97.9% and a viability, T/C (second compound 0.00316 µM, first compound 0.00316 µM) of 107%. The viability, T/C (second compound 0.00316 µM, first compound 0.01 µM) was 102%, the viability, T/C [1] was 110% and the viability, T/C [2] was 102%. The viability, T/C (second compound 0.01 µM, first compound 0.000316 µM) was 94.2%, the viability, T/C (second compound 0.01 µM, first compound 0.001 µM) was 100% and the viability, T/C (second compound 0.01 µM, first compound 0.00316 µM) was 113%. For the same molecule, the viability, T/C (second compound 0.01 µM, first compound 0.01 µM) was 98.5%, the viability, T/C [3] was 124% and the viability, T/C [4] was 99.3%. For the same molecule, the viability, T/C (second compound 0.0316 µM, first compound 0.000316 µM) was 105%, the viability, T/C (second compound 0.0316 µM, first compound 0.001 µM) was 114% and the viability, T/C (second compound 0.0316 µM, first compound 0.00316 µM) was 108%. It also gave a viability, T/C (second compound 0.0316 µM, first compound 0.01 µM) of 110%, a viability, T/C [5] of 103% and a viability, T/C [6] of 103%. The viability, T/C (second compound 0.1 µM, first compound 0.000316 µM) was 108%, the viability, T/C (second compound 0.1 µM, first compound 0.001 µM) was 102% and the viability, T/C (second compound 0.1 µM, first compound 0.00316 µM) was 102%. For the same molecule, the viability, T/C (second compound 0.1 µM, first compound 0.01 µM) was 110%, the viability, T/C [7] was 103% and the viability, T/C [8] was 113%. The viability, T/C (second compound 0.316 µM, first compound 0.000316 µM) was 82.8%, the viability, T/C (second compound 0.316 µM, first compound 0.001 µM) was 79.5% and the viability, T/C (second compound 0.316 µM, first compound 0.00316 µM) was 79.4%. It also gave a viability, T/C (second compound 0.316 µM, first compound 0.01 µM) of 86.1%, a viability, T/C [9] of 83.8% and a viability, T/C [10] of 90.6%. For the same molecule, the viability, T/C (second compound 1 µM, first compound 0.000316 µM) was 60.8%, the viability, T/C (second compound 1 µM, first compound 0.001 µM) was 57.5% and the viability, T/C (second compound 1 µM, first compound 0.00316 µM) was 58.3%. It also gave a viability, T/C (second compound 1 µM, first compound 0.01 µM) of 55.4%, a viability, T/C [11] of 61.6% and a viability, T/C [12] of 56.5%.
Molecule `CNC(=O)c1ccc(N2C(=S)N(c3ccc(C#N)c(C(F)(F)F)c3)C(=O)C2(C)C)cc1F` + CC(Nc1ccc2c(c1)OCCn1cc(N3C(=O)OCC3C(F)F)nc1-2)C(N)=O has an IC50 (second compound 0.00316 µM) of over 10 µM, an IC50 (second compound 0.01 µM) of over 10 µM and an IC50 (second compound 0.0316 µM) of over 10 µM. For the same molecule, the IC50 (second compound 0.1 µM) was over 10 µM, the IC50 (second compound 0.316 µM) was over 10 µM and the IC50 (second compound 1 µM) was 3.72 µM. The viability, T/C [1] was 99.8%, the viability, T/C [2] was 87% and the viability, T/C (second compound 0.00316 µM, first compound 0.316 µM) was 89.7%. It also gave a viability, T/C (second compound 0.00316 µM, first compound 1 µM) of 101%, a viability, T/C (second compound 0.00316 µM, first compound 3.16 µM) of 99.3% and a viability, T/C (second compound 0.00316 µM, first compound 10 µM) of 88.2%. For the same molecule, the viability, T/C [3] was 103%, the viability, T/C [4] was 94.8% and the viability, T/C (second compound 0.01 µM, first compound 0.316 µM) was 97.6%. For the same molecule, the viability, T/C (second compound 0.01 µM, first compound 1 µM) was 91.3%, the viability, T/C (second compound 0.01 µM, first compound 3.16 µM) was 101% and the viability, T/C (second compound 0.01 µM, first compound 10 µM) was 90%. For the same molecule, the viability, T/C [5] was 93.3%, the viability, T/C [6] was 101% and the viability, T/C (second compound 0.0316 µM, first compound 0.316 µM) was 102%. It also gave a viability, T/C (second compound 0.0316 µM, first compound 1 µM) of 92.8%, a viability, T/C (second compound 0.0316 µM, first compound 3.16 µM) of 97.5% and a viability, T/C (second compound 0.0316 µM, first compound 10 µM) of 90.1%. For the same molecule, the viability, T/C [7] was 97.7%, the viability, T/C [8] was 92% and the viability, T/C (second compound 0.1 µM, first compound 0.316 µM) was 91.9%. It also gave a viability, T/C (second compound 0.1 µM, first compound 1 µM) of 91.7%, a viability, T/C (second compound 0.1 µM, first compound 3.16 µM) of 87.5% and a viability, T/C (second compound 0.1 µM, first compound 10 µM) of 77.6%. For the same molecule, the viability, T/C [9] was 82.7%, the viability, T/C [10] was 75.8% and the viability, T/C (second compound 0.316 µM, first compound 0.316 µM) was 79.7%. For the same molecule, the viability, T/C (second compound 0.316 µM, first compound 1 µM) was 70.2%, the viability, T/C (second compound 0.316 µM, first compound 3.16 µM) was 62.2% and the viability, T/C (second compound 0.316 µM, first compound 10 µM) was 60.2%. For the same molecule, the viability, T/C [11] was 50.2%, the viability, T/C [12] was 59.6% and the viability, T/C (second compound 1 µM, first compound 0.316 µM) was 53%. For the same molecule, the viability, T/C (second compound 1 µM, first compound 1 µM) was 51.1%, the viability, T/C (second compound 1 µM, first compound 3.16 µM) was 51.8% and the viability, T/C (second compound 1 µM, first compound 10 µM) was 44.7%.
